Consider one molecule from US20130045983A1, “HSP90 INHIBITORS FOR THERAPEUTIC TREATMENT” (Novartis AG, priority 2008, published 2013).

Some results are limits rather than exact numbers.

Type in all cases: cell-based
For one assay, the system named is OVXF 899. Nature of the assay: Clonogenic assay, OVXF 899. The conditions noted are these: Homo sapiens, Ovary, Pap. serous adenocarcinoma, soft agar, read-out: IC50 (colony formation). The procedure: (§1) The anticancer activity of (R)-2-amino-7-[2-(6-methoxy-pyridin-2-yl)-phenyl]-4-methyl-7,8-dihydro-6H-pyrido[4,3-d]pyrimidin-5-one is evaluated in 30 human tumor xenografts in vitro using a clonogenic assay. In this assay, human cells derived from cancer patients are evaluated for the capacity of (R)-2-amino-7-[2-(6-methoxy-pyridin-2-yl)-phenyl]-4-methyl-7,8-dihydro-6H-pyrido[4,3-d]pyrimidin-5-one to inhibit the formation of 3 dimensional colonies. […] The tumor xenografts which have never been cultured in cell culture plastic dishes are isolated from nude mice. Tumor cell suspensions are prepared and incubated in 24 well plates containing layers of soft agar. Under these conditions a special subpopulation of cells selectively grows to colonies. (R)-2-amino-7-[2-(6-methoxy-pyridin-2-yl)-phenyl]-4-methyl-7,8-dihydro-6H-pyrido[4,3-d]pyrimidin-5one is tested in 6 concentrations up to 1000 nM. The tumor test panel comprises 1 to 10 models of 12 different human tumor types, which were bladder cancer, colon, gastric, non small cell lung (adeno, squamous cell, and large cell), small cell lung, mammary, ovary, and prostate cancer, as well as leukemia, lymphoma, melanoma, and sarcoma. Antitumor effects are recorded as inhibition of colony formation in relation to untreated controls. […]

The next assay has as its system SXF 1301. Nature of the assay: Clonogenic assay, SXF 1301. The following applies: Homo sapiens, Sarcoma, Malignant rhabdomyosarcoma, soft agar, read-out: IC50 (colony formation). The procedure:
as §1

Another assay deals with MAXF 574. Briefly: Clonogenic assay, MAXF 574. The following applies: Homo sapiens, Breast, Carcinoma, soft agar, read-out: IC50 (colony formation). The procedure: as §1
For a further assay, the system named is PRXF MRIH1579. Briefly: Clonogenic assay, PRXF MRIH1579. The conditions noted are these: Homo sapiens, Prostate, Adenocarcinoma, soft agar, read-out: IC50 (colony formation). The procedure: as §1
Another assay concerns SKBR3. Nature of the assay: Cell proliferation assay, SKBR3 (breast). The conditions noted are these: Homo sapiens, SK-BR-3, 72 hours in presence of compound. The procedure: (§2) Seventeen cancer derived cell lines are used (GTL-16, N87, H1975, A549, H69, A2780, PC3, BT474, SKBR3, MCF-7, A375, MV4;11, K562, KM12L4A, H929, OPM-2 and KMS-11) to test the effect of (R)-2-amino-7-[2-(6-methoxy-pyridin-2-yl)-phenyl]-4-methyl-7,8-dihydro-6H-pyrido[4,3-d]pyrimidin-5-one. These cell lines cover the following 9 tumor types: Gastric, Lung, Ovarian, Prostate, Breast, Melanoma, Leukemia, Colon and Multiple myeloma. After division and medium change, cells from stock culture are seeded on cell plates and cultured for about 18 hours to allow cell growth and attachment before starting the assay. Then on the first day of the assay, (R)-2-amino-7-[2-(6-methoxy-pyridin-2-yl)-phenyl]-4-methyl-7,8-dihydro-6H-pyrido[4,3-d]pyrimidin-5-one is added to the medium at various concentrations. Cells are cultured up to 72 or 96 hours and cell proliferation is determined using commercially available cell proliferation kits.
(§3) Table 1 relates to the concentration in nM of (R)-2-amino-7-[2-(6-methoxy-pyridin-2-yl)-phenyl]-4-methyl-7,8-dihydro-6H-pyrido[4,3-d]pyrimidin-5-one which inhibits cell proliferation by 50% (IC50). […]

The subject of the next assay is KMS-11. Briefly: Cell proliferation assay, KMS-11 (multiple myeloma). The conditions noted are these: Homo sapiens, 72 hours in presence of compound. The procedure:
as §2, §3

A further assay concerns MEXF 989. Nature of the assay: Clonogenic assay, MEXF 989. The following applies: Homo sapiens, Amelanotic melanoma, soft agar, read-out: IC50 (colony formation). The procedure: as §1
The next assay has as its system CXF 214. Nature of the assay: Clonogenic assay, CXF 214. The following applies: Homo sapiens, Stomach, Adenocarcinoma, soft agar, read-out: IC50 (colony formation). The procedure: as §1
For a further assay, the system named is PC3. Briefly: Cell proliferation assay, PC3 (prostate). The conditions noted are these: Homo sapiens, PC-3, 72 hours in presence of compound. The procedure: as §2, §3
The test system of a further assay is LXFL 1176. Nature of the assay: Clonogenic assay, LXFL 1176. The conditions noted are these: Homo sapiens, Lung, non-small cell, Mucous large cell lung carcinoma, soft agar, read-out: IC50 (colony formation). The procedure:
as §1

Another assay has as its system LYXF U937. Briefly: Clonogenic assay, LYXF U937. The following applies: Homo sapiens, U-937, Histiocytic lymphoma, soft agar, read-out: IC50 (colony formation). The procedure: as §1
The subject of a further assay is LEXF JURKAT. Nature of the assay: Clonogenic assay, LEXF JURKAT. The following applies: Homo sapiens, Leukemia, T cell leukemia, soft agar, read-out: IC50 (colony formation). The procedure:
as §1

In the next assay the test system is PRXF 22RV1. Briefly: Clonogenic assay, PRXF 22RV1. The conditions noted are these: Homo sapiens, Prostate carcinoma, soft agar, read-out: IC50 (colony formation). The procedure:
as §1

A further assay deals with MEXF 1341. Briefly: Clonogenic assay, MEXF 1341. The following applies: Homo sapiens, Amelanotic melanoma, soft agar, read-out: IC50 (colony formation). The procedure: as §1
The test system of another assay is N87. Nature of the assay: Cell proliferation assay, N87 (gastric). The conditions noted are these: 72 hours in presence of compound. The procedure:
as §2, §3

A further assay deals with PRXF PC3M. Nature of the assay: Clonogenic assay, PRXF PC3M. The following applies: Homo sapiens, PC-3M, Prostate, Adenocarcinoma, metastatic, soft agar, read-out: IC50 (colony formation). The procedure: as §1
The next assay deals with KM12L4A. Nature of the assay: Cell proliferation assay, KM12L4A (colon). The following applies: 72 hours in presence of compound. The procedure:
as §2, §3

For the next assay, the system named is MAXF 401. Briefly: Clonogenic assay, MAXF 401. The conditions noted are these: Homo sapiens, MAXF401, Breast, Pap. adenocarcinoma, soft agar, read-out: IC50 (colony formation). The procedure:
as §1

Another assay deals with SXF 1186. Nature of the assay: Clonogenic assay, SXF 1186. The conditions noted are these: Homo sapiens, Sarcoma, Osteoblastic osteosarcoma, soft agar, read-out: IC50 (colony formation). The procedure:
as §1

In another assay the test system is SXF 1410. Nature of the assay: Clonogenic assay, SXF 1410. The conditions noted are these: Homo sapiens, Sarcoma, Fibroblastic osteosarcoma, soft agar, read-out: IC50 (colony formation). The procedure:
as §1

As usually defined, the IC50 is the concentration that gives 50% inhibition. The GI50 is the concentration that inhibits growth by half. As to `COc1cccc(-c2ccccc2[C@H]2Cc3nc(N)nc(C)c3C(=O)N2)n1` [(R)-2-amino-7-[2-(6-methoxy-pyridin-2-yl)-phenyl]-4-methyl-7,8-dihydro-6H-pyrido[4,3-d]pyrimidin-5-one], the IC50 with OVXF 899 was > 100 nM; in the assay with SXF 1301, 26 nM; in the assay on MAXF 574 it was 316 nM; in the assay with PRXF MRIH1579, > 1000 nM; in the assay on MEXF 989 it was 17 nM; in the assay with CXF 214 it was > 1000 nM. Further, the IC50 is 21 nM in the assay on LXFL 1176; 28 nM with LYXF U937; 4 nM with LEXF JURKAT; 23 nM in the assay on PRXF 22RV1; > 1000 nM in the assay on MEXF 1341; 276 nM in the assay with PRXF PC3M. Besides, the IC50 with MAXF 401 was 15 nM; in the assay with SXF 1186, 21 nM; in the assay with SXF 1410, > 1000 nM. Also, the GI50 in the assay with SKBR3 turned out to be 18 nM; with KMS-11 it was 7 nM; in the assay on PC3, 16 nM; in the assay on N87, 12 nM; in the assay on KM12L4A, 11 nM.
